In patent US9951052B2, “Inhibitors of the renal outer medullary potassium channel” (Merck Sharp & Dohme Corp., priority 2013, dated 2018):

Molecular target: T1, hROMK (hKir1.1) (Homo sapiens, UniProt P48048)
T1 construct: expressed in transfected cells
T1 sequence (P48048 1-391): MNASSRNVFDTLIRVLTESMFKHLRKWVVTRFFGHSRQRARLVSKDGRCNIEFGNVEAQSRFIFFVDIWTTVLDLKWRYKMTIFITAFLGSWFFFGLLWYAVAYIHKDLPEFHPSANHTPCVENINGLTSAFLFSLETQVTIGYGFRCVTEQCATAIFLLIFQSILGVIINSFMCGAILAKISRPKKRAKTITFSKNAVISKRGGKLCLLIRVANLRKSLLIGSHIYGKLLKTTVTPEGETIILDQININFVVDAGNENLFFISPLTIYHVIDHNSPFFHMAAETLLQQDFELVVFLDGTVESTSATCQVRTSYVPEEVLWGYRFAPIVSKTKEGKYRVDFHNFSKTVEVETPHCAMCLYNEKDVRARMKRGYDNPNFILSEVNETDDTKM
Assay: Thallium Flux Assay (ROMK channel functional thallium flux, FLIPR-Tetra)
Format: cell-based
Conditions: HEK293 cells stably expressing hROMK (hKir1.1); 30 min incubation with compound; HCl salt run where final product was an HCl salt
Experimental: The following Thallium Flux Assay was performed on each of the final product compounds in the Examples. When the final product of an Example was an HCl salt, the salt was run in the Assay.
Cell Culture Conditions—HEK293 cells stably expressing hROMK (hKir1.1) were grown at 37° C. in a 10% CO2 humidified incubator in complete growth media: Dulbecco's Modified Eagle Medium supplemented with non-essential amino acids, Penicillin/Streptomycin/Glutamine, G418 and FBS. At >80% confluency, aspirate the media from the flask and rinse with 10 mL Calcium/Magnesium-free PBS. Add 5 mL of 1× trypsin (prepared in Ca/Mg Free PBS) to T-225 flask and return flask to 37° C./CO2 incubator for 2-3 minutes. To dislodge the cell, gently bang the side of the flask with your hand. Triturate the cells completely and then transfer the cells to 25 mL complete media. Centrifuge at 1,500 rpm for 6 min followed by resuspension in complete growth media and determine cell concentration. For typical re-seeding, 4E6 cells/T-225 flask will attain >80% confluency in 4 days. Under ideal growth conditions and appropriate tissue culture practices, this cell line is stable for 40-45 passages.
FluxOR Kit Components (Invitrogen F10017)
• FluxOR™ Reagent (Component A) • FluxOR™ Assay Buffer (Component B)—10× Concentrate • PowerLoad™ Concentrate (Component C)—100× Concentrate • Probenecid (Component D)—Lyophilized sample is kept at −20° C. Water soluble, 100× after solubilization in 1 mL water. Store at 4° C. • FluxOR™ Chloride-free Buffer (Component E)—5× Concentrate • Potassium sulfate (K2SO4) Concentrate (Component F)—125 mM in water. Store at 4° C. • Thallium sulfate (T12SO4) Concentrate (Component G)—50 mM in water. Store at 4° C. • DMSO (dimethyl sulfoxide, Component H)—1 mL (100%) Reagent Preparation: FluxOR Working Solutions • 1000× FluxOR™ Reagent: Reconstitute a vial of component A in 100 μl DMSO; Mix well; Store 10 μl aliquots at −20° C. • 1× FluxOR™ Assay Buffer: Dilute Component B 10-fold with water; Adjust pH to 7.4 with Hepes/NaOH; Filter and store at 4° C. • Probenecid/Assay Buffer: 100 mL of 1× FluxOR™ Assay Buffer; 1 mL of reconstituted component D; Store at 4° C. • Loading Buffer (per microplate): 10 μl 1000× FluxOR™ Reagent; 100 μl component C; 10 mL Probenecid/Assay Buffer • Compound Buffer (per microplate): 20 mL Probenecid/Assay Buffer; 0.3 mM ouabain (10 mM ouabain in water can be stored in amber bottle/aluminum foil at room temperature); Test compound • 1× FluxOR™ Chloride-Free Buffer: Prepare 1× working solution in water. Can be stored at room temperature • Stimulant Buffer (prepared at 5× final concentration in 1× FluxOR™ Chloride-Free Buffer): 7.5 mM Thallium sulfate and 0.75 mM Potassium sulfate (to give a final assay concentration of 3 mM Thallium/0.3 mM Potassium). Store at 4° C. when not in use.
Assay protocol—The ROMK channel functional thallium flux assay is performed in 384 wells, using the FLIPR-Tetra instrument. HEK-hKir1.1 cells are seeded in Poly-D-Lysine microplates and kept in a 37° C.-10% CO2 incubator overnight. On the day of the experiment, the growth media is replaced with the FluxOR™ reagent loading buffer and incubated, protected from light, at ambient temperature (23-25° C.) for 90 min. The loading buffer is replaced with assay buffer±test compound followed by 30 min incubation at ambient temperature, where the Thallium/Potassium stimulant is added to the microplate.
• 1. Seed HEK-hKir1.1 cells (50 μl at 20,000 cells/well) in 384-well PDL coated Microplates • 2. Allow cells to adhere overnight in humidified 37° C./10% CO2 incubator • 3. Completely remove cell growth media from microplate and replace with 25 μl loading buffer • 4. Incubate Microplate at room temperature, protected from light, for 90 min • 5. Remove loading buffer and replace with 25 μl 1× Assay Buffer±test compound. • 6. Incubate microplate at room temperature, protected from light, for 30 min • 7. […]

Structure (SMILES) | IC50
N#Cc1cc(F)c(NC(=O)C2CCN(CCc3ccc4c(c3)COC4=O)CC2)cc1F [Example 14, N-(4-cyano-2,5-difluorophenyl)-1-(2-(1-oxo-1,3-dihydroisobenzofuran-5-yl)ethyl)piperidine-4-carboxamide] | 140 nM
Cc1nsc(N(C)C(=O)C2C3CN(C[C@H](O)c4ccc5c(c4C)COC5=O)CC32)n1 (stereo partly drawn) [Example 62, 3-((R)-2-hydroxy-2-(4-methyl-1-oxo-1,3-dihydroisobenzofuran-5-yl)ethyl)-N-methyl-N-(3-methyl-1,2,4-thiadiazol-5-yl)-3-azabicyclo[3.1.0]hexane-6-carboxamide] | 170 nM
Cc1cc(C#N)ccc1NC(=O)C1CCN(CCc2ccc3c(c2C)COC3=O)CC1 [Example 8, N-(4-cyano-2-methylphenyl)-1-(2-(4-methyl-1-oxo-1,3-dihydroisobenzofuran-5-yl)ethyl)piperidine-4-carboxamide] | 100 nM
COc1nsc(NC(=O)C2CCN(C[C@H](O)c3ccc4c(c3C)COC4=O)CC2)n1 [Example 1, (R)-1-(2-Hydroxy-2-(4-methyl-1-oxo-1,3-dihydroisobenzofuran-5-yl)ethyl)-N-(3-methoxy-1,2,4-thiadiazol-5-yl)piperidine-4-carboxamide] | 170 nM
Cc1nc(NC(=O)C2(F)CCN(C[C@H](O)c3ccc4c(c3C)COC4=O)CC2)ccc1C#N [Example 51, (R)-N-(5-cyano-6-methylpyridin-2-yl)-4-fluoro-1-(2-hydroxy-2-(4-methyl-1-oxo-1,3-dihydroisobenzofuran-5-yl)ethyl)piperidine-4-carboxamide] | 220 nM
Cc1c([C@@H](O)CN2CCC(C(=O)Nc3cccc(-n4cnnn4)c3)CC2)ccc2c1COC2=O [Example 24, (R)-N-(3-(1H-tetrazol-1-yl)phenyl)-1-(2-hydroxy-2-(4-methyl-1-oxo-1,3-dihydroisobenzofuran-5-yl)ethyl)piperidine-4-carboxamide] | 90 nM
Cc1c([C@@H](O)CN2CCC(C(=O)Nc3ccc(-c4csnn4)cc3)CC2)ccc2c1COC2=O [Example 33, (R)-N-(4-(1,2,3-thiadiazol-4-yl)phenyl)-1-(2-hydroxy-2-(4-methyl-1-oxo-1,3-dihydroisobenzofuran-5-yl)ethyl)piperidine-4-carboxamide] | 170 nM
Cc1c(CCN2CCC(C(=O)Nc3cc(C#N)ccc3F)CC2)ccc2c1COC2=O [Example 9, N-(5-cyano-2-fluorophenyl)-1-(2-(4-methyl-1-oxo-1,3-dihydroisobenzofuran-5-yl)ethyl)piperidine-4-carboxamide] | 250 nM
Cc1c(CCN2CCC(C(=O)Nc3ccc4nonc4c3)CC2)ccc2c1COC2=O [Example 11, N-(benzo[c][1,2,5]oxadiazol-5-yl)-1-(2-(4-methyl-1-oxo-1,3-dihydroisobenzofuran-5-yl)ethyl)piperidine-4-carboxamide] | 210 nM
Cc1cc(NC(=O)C2(F)CCN(C[C@H](O)c3ccc4c(c3C)COC4=O)CC2)sn1 [Example 48, (R)-4-fluoro-1-(2-hydroxy-2-(4-methyl-1-oxo-1,3-dihydroisobenzofuran-5-yl)ethyl)-N-(3-methylisothiazol-5-yl)piperidine-4-carboxamide] | 40 nM
Cc1c(CCN2CCC(C(=O)Nc3ccc4c(c3)COC4=O)CC2)ccc2c1COC2=O [Example 10, 1-(2-(4-methyl-1-oxo-1,3-dihydroisobenzofuran-5-yl)ethyl)-N-(1-oxo-1,3-dihydroisobenzofuran-5-yl)piperidine-4-carboxamide] | 10 nM
Cc1c(CCN2CCC(C(=O)Nc3ccc(C#N)c(F)c3)CC2)ccc2c1COC2=O [Example 5, N-(4-cyano-3-fluorophenyl)-1-(2-(4-methyl-1-oxo-1,3-dihydroisobenzofuran-5-yl)ethyl)piperidine-4-carboxamide] | 30 nM
Cc1c([C@@H](O)CN2CCC(F)(C(=O)Nc3cnns3)CC2)ccc2c1COC2=O [Example 53, (R)-4-fluoro-1-(2-hydroxy-2-(4-methyl-1-oxo-1,3-dihydroisobenzofuran-5-yl)ethyl)-N-(1,2,3-thiadiazol-5-yl)piperidine-4-carboxamide] | 260 nM
Cc1cc(NC(=O)C2CCN(C[C@H](O)c3ccc4c(c3C)COC4=O)CC2)sn1 [Example 36, (R)-1-(2-hydroxy-2-(4-methyl-1-oxo-1,3-dihydroisobenzofuran-5-yl)ethyl)-N-(3-methylisothiazol-5-yl)piperidine-4-carboxamide] | 120 nM
Cc1nsc(NC(=O)C2C3CN(C[C@H](O)c4ccc5c(c4C)COC5=O)CC32)n1 (stereo partly drawn) [Example 56, 3-((R)-2-hydroxy-2-(4-methyl-1-oxo-1,3-dihydroisobenzofuran-5-yl)ethyl)-N-(3-methyl-1,2,4-thiadiazol-5-yl)-3-azabicyclo[3.1.0]hexane-6-carboxamide] | 350 nM
Cc1c([C@@H](O)CN2CCC(C(=O)Nc3cncc(F)c3)CC2)ccc2c1COC2=O [Example 34, (R)-N-(5-fluoropyridin-3-yl)-1-(2-hydroxy-2-(4-methyl-1-oxo-1,3-dihydroisobenzofuran-5-yl)ethyl)piperidine-4-carboxamide] | 340 nM
Cc1cc(NC(=O)C2C3CN(C[C@H](O)c4ccc5c(c4C)COC5=O)CC32)sn1 (stereo partly drawn) [Example 55, 3-((R)-2-hydroxy-2-(4-methyl-1-oxo-1,3-dihydroisobenzofuran-5-yl)ethyl)-N-(3-methylisothiazol-5-yl)-3-azabicyclo[3.1.0]hexane-6-carboxamide] | 60 nM
Cc1c([C@@H](O)CN2CC3C(C2)C3C(=O)N(C)c2ccns2)ccc2c1COC2=O (stereo partly drawn) [Example 61, 3-((R)-2-hydroxy-2-(4-methyl-1-oxo-1,3-dihydroisobenzofuran-5-yl)ethyl)-N-(isothiazol-5-yl)-N-methyl-3-azabicyclo[3.1.0]hexane-6-carboxamide] | 140 nM
Cc1nc(NC(=O)C2CCN(CCc3ccc4c(c3C)COC4=O)CC2)ccc1C#N [Example 7, N-(5-cyano-6-methylpyridin-2-yl)-1-(2-(4-methyl-1-oxo-1,3-dihydroisobenzofuran-5-yl)ethyl)piperidine-4-carboxamide] | 100 nM
Cc1cc(N(C)C(=O)C2CCN(C[C@H](O)c3ccc4c(c3C)COC4=O)CC2)sn1 [Example 44, (R)-1-(2-hydroxy-2-(4-methyl-1-oxo-1,3-dihydroisobenzofuran-5-yl)ethyl)-N-methyl-N-(3-methylisothiazol-5-yl)piperidine-4-carboxamide] | 20 nM
N#Cc1cc(NC(=O)C2CCN(CCc3ccc4c(c3)COC4=O)CC2)n(-c2ccc(F)cc2)c1 [Example 21, N-(4-cyano-1-(4-fluorophenyl)-1H-pyrrol-2-yl)-1-(2-(1-oxo-1,3-dihydroisobenzofuran-5-yl)ethyl)piperidine-4-carboxamide] | 410 nM
